Reference: patent publication US20160220626A1, “REVERSAL OF INSULIN RESISTANCE AND DYSLIPIDEMIA IN HIGH-FAT DIET-INDUCED OBESE RAT MODELS BY PHYSALIS MINIMA L. EXTRACT” (priority 2015, published 2016)

Experiments:
Assay type in all cases: in vivo, male Wistar rats
[1] = tested on: insulin resistant high-fat diet-induced obese rats; assay: Extract supplementation in insulin resistant high-fat diet-induced obese rats: body weight, food intake, lipid profile, insulin resistance
Method: (§1) Extract supplementation. […] The HF fed rats were then sub-divided into four groups of three rats each, i.e. Group 1, negative control/pathological control, treated with distilled water; Group 2, positive control, treated with 150 mg/kg of standard drug metformin (Met); Groups 3 and 4, treated groups, received the P. minima extract at doses of 150 and 300 mg/kg, respectively. Normal control rats also received distilled water throughout the treatment for a period of 12 weeks. All the groups, except the control group, were on high-fat diet during the treatment period.
Blood and tissue collection and sample preparation. For biochemical analysis after 16 weeks of experimental diet, the blood samples were taken from the tail vein after an overnight fast, whereas after 12 weeks of treatment period, rats were subjected to anesthesia and blood was drawn by cardiac puncture. Liver and pancreas samples were prepared and stained with hematoxylin and eosin, as described by Castro and co-workers. The liver was excised and fixed in buffered formalin. […]
Biochemical measurements. […] Fasting blood glucose levels were measured using glucometer (Accu Chek Performa, Australia). Fasting insulin levels were quantified using ultra sensitive rat insulin ELISA kit (Crystal Chem, Downers Grove, USA). Insulin sensitivity was evaluated using Homeostatic Model Assessment (HOMA).

[2] = tested on: high-fat diet-induced obese rats; assay: Renal toxicity assessment after 12 weeks of treatment; conditions: serum, 150 mg/kg, mean ± SE
Method: as §1
Blood and tissue collection and sample preparation. For biochemical analysis after 16 weeks of experimental diet, the blood samples were taken from the tail vein after an overnight fast, whereas after 12 weeks of treatment period, rats were subjected to anesthesia and blood was drawn by cardiac puncture. […]
Biochemical measurements. […] Fasting blood glucose levels were measured using glucometer (Accu Chek Performa, Australia). Fasting insulin levels were quantified using ultra sensitive rat insulin ELISA kit (Crystal Chem, Downers Grove, USA). Insulin sensitivity was evaluated using Homeostatic Model Assessment (HOMA). Serum total cholesterol, triglycerides, HDL, LDL, VLDL, urea, creatnine, AST, ALP, SGPT, and direct and total bilirubins were analysed using automatic analyser (Hitachi, Roche Diagnostics 902, Tokyo, Japan). […]

[3] = tested on: high-fat diet-induced obese rats; assay: Liver toxicity assessment after 12 weeks of treatment; conditions: serum, 150 mg/kg, mean ± SE
Method: as §1
(§2) Blood and tissue collection and sample preparation. For biochemical analysis after 16 weeks of experimental diet, the blood samples were taken from the tail vein after an overnight fast, whereas after 12 weeks of treatment period, rats were subjected to anesthesia and blood was drawn by cardiac puncture. Liver and pancreas samples were prepared and stained with hematoxylin and eosin, as described by Castro and co-workers. The liver was excised and fixed in buffered formalin. The sectioned liver tissue segments were stained with hematoxylin-eosin (H-E) and observed under light microscope.
Biochemical measurements. Blood glucose, serum insulin, total cholesterol, triglycerides, HDL, LDL, very low density lipoproteins ([…]), urea, creatnine, aspartate aminotransferase ([…]), alkaline phosphatase (ALP), serum glutamic pyruvic transaminase (SGPT), and direct and total bilirubin were estimated. Fasting blood glucose levels were measured using glucometer (Accu Chek Performa, Australia). Fasting insulin levels were quantified using ultra sensitive rat insulin ELISA kit (Crystal Chem, Downers Grove, USA). Insulin sensitivity was evaluated using Homeostatic Model Assessment (HOMA). Serum total cholesterol, triglycerides, HDL, LDL, VLDL, urea, creatnine, AST, ALP, SGPT, and direct and total bilirubins were analysed using automatic analyser (Hitachi, Roche Diagnostics 902, Tokyo, Japan).
Evaluation of renal and liver toxicity of P. minima extract: Serum urea, creatnine, aspartate aminotransferase ([…]), alkaline phosphatase (ALP), serum glutamic pyruvic transaminase (SGPT), and total and direct bilirubins were measured to evaluate the toxicity of P. minima towards liver and kidney.

[4] = tested on: high-fat diet-induced obese rats; assay: Histopathology of liver (H&E staining, light microscopy); conditions: metformin 150 mg/kg; P. minima 150 and 300 mg/kg; versus pathological control (FIG. 8)
Method: as §1, §2

For `CN(C)C(=N)N=C(N)N` [Metformin], the “reduction in body weights” value ([1]; 150 mg/kg daily, 12 weeks, on high-fat diet, pathological control gained about 109 g, control 75 g) was ~35 g, the average food intake ([1]; supplemented groups, 12 weeks of treatment, high-fat diet rats) was “Decrease” and the Creatnine [2] was 0.35 ± 0 mg/dL. The Urea [2] was 31 ± 0 mg/dL, the ALP [3] was 49.5 ± 1.5 U/L and the “AST (aspartate aminotransferase)” value [3] was 1.5 ± 0.5 U/L. For the same molecule, the Direct bilirubin [3] was 0.02 ± 0 mg/dL, the SGPT [3] was 48.5 ± 1.5 U/L and the Total bilirubin [3] was 0.275 ± 0.025 mg/dL. For the same molecule, the “hepatic steatosis (liver morphology, H&E)” value [4] was “reversed the condition to the normal”.
